Experimental data: article PMC9146163, “Novel Au Carbene Complexes as Promising Multi-Target Agents in Breast Cancer Treatment” (Pharmaceuticals, 2022)
Where two headings read alike, the source gives them in different places.

Assays:
β-actin in MCF-10A cells = test: Actin immunofluorescence, MCF-10A; type: cell-based, human
Method: (§1) The MitoTracker Deep Red FM probe (MitoTracker Mitochondrion-Selective Probes, Invitrogen European Headquarters, Paisley, PA4 9RF, UK) was used for mitochondrial staining, as previously described. For immunofluorescence analysis, the cells were seeded and further processed, as reported by Iacopetta et al.. The primary antibodies used were: rabbit anti-β-Actin and vimentin (Santa Cruz Biotechnology, Dallas, TX, USA), mouse anti cytochrome c and NF-κB p65 (Abcam, Cambridge, UK), diluted 1:100 in bovine serum albumin (BSA) 2% overnight at 4 °C. The secondary antibodies were: Alexa Fluor® 488 conjugate goat-anti-rabbit and Alexa Fluor® 568 conjugate goat-anti-mouse (Thermo Fisher Scientific, MA, USA), diluted 1:500 and incubated for 2h at 37 °C. DAPI 0.2 μg/mL (Sigma Aldrich, Milan, Italy) was used for nuclei staining. […] All the images were acquired and processed using the LAS-X software.
E: Figure S1. Actin immunofluorescence studies in MCF-10A cells […]
Figure S1. Actin immunofluorescence studies. M CF-10A cells were treat ed with compounds 1 and […]
treatment, the cells were methanol fixed, incubated with primary and secondary antibodies, stained with DAPI and observed and imaged under the inverted fluorescence microscope at 20x […]
A: nuclear stain with DAPI (λex/λem = 350/460 nm); Panels B: β-actin ([…]); Panels C: show a merge. R epresentative fields are shown.

NF-κB in MCF-10A cells = test: NF-κB immunofluorescence, MCF-10A; type: cell-based, human
Method: as §1
L: Figure S6. NF-κB expression in MCF-10A cells
CTRL cells and in the cells exposed to compounds 1 and 6 NF-κB is localized within the cytoplasm and nucleus. Panels A, nuclear stain with DAPI (λex/em= 350/460 nm); panels B, Alexa Fluor CF 488 (λex/em= 490/515 nm); panels C, overlay channels. Images were acquired at 40x magnification and repres entative fields are shown.

[1] = system: vimentin in MCF-10A cells; test: Vimentin expression (immunofluorescence, Western blot), MCF-10A; type: cell-based, human; details: IC50 values, 24 h; immunofluorescence and Western blot quantification
Method: as §1
Protein lysates underwent the SDS-PAGE process, as already defined. […]
(CTRL) for 24 h. After treatment, the cells were further processed, observed and imaged under the inverted fluorescence microscope at 20x m agnification (for mo re details see Materi als and M ethods). […]
and processed as reported in the Experimental Section. […] (d) Western blots quantification carried out using […]

β-actin in MCF-7 cells = test: Actin immunofluorescence, MCF-7; type: cell-based, human; details: 24 h; compound 6 at its IC50 value, LA 0.1 µM
Method: as §1

[2] = target: T1, Labeled Rabbit Muscle Actin (Oryctolagus cuniculus, UniProt P68135); test: In vitro actin polymerization assay; type: biochemical; details: 5 µM
T1 construct: purchased Abcam (Actin Polymerization/Depolymerization Assay Kit)
Method: The ability of the tested compounds to interfere with the actin polymerization and depolymerization reaction was measured using an Actin Polymerization/Depolymerization Assay Kit purchased from Abcam, following the manufacturer’s instructions. […] For the polymerization assay, reconstituted actin was mixed with supplemented Buffer G and samples in a white 96-well plate and then the polymerization reaction was induced with the addition of the Buffer P supplemented with 10 mM ATP. The solution was mixed and the data acquisition started. For the Actin Depolymerization Assay, supplemented Buffers P and G were mixed and incubated in a white 96-well plate at room temperature for one hour to polymerize the actin, protected from light. Then samples were added and the data acquisition started. Latrunculin A and Cytochalasin B were used as control molecules at a concentration of 5 μM. For both the assays, the assembly of actin filaments was determined by measuring the fluorescence (Ex/Em: 365/410 nm) in kinetic mode for 1 h at room temperature using a microplate reader.

SkBr3 cells = test: MTT assay, SkBr3; type: cell-based, human; details: MTT, 72 h; mean ± SD; read-out: IC50 SkBr3
Method: (§2) The five employed cell lines were purchased from American Type Culture Collection (ATCC, Manassas, VA, USA) and maintained as already reported. MCF-7, MDA-MB-231, MCF-10A and Hek-293 were cultured, as indicated by Iacopetta et al.. SkBr3 cells were maintained in DMEM high glucose, supplemented with 10% FBS and 100 μg/mL penicillin/streptomycin.
(§3) MTT assays [Sigma Aldrich (St.Louis, MO, USA)] were used in order to determine the in vitro anticancer activities of all the target compounds, as already reported.The compounds were tested at different concentrations (0.1-1-10-20-40 µM) for 72 h. Results are represented as percent (%) of basal and the IC50 values were calculated using GraphPad Prism 9 (GraphPad Software, La Jolla, CA, USA).

vimentin in MCF-7 cells = test: Vimentin expression (immunofluorescence), MCF-7; type: cell-based, human; details: fluorescence quantification; IC50 value, 24 h
Method: as §1
Protein lysates underwent the SDS-PAGE process, as already defined. Then lysates were resolved on a 7.5% SDS polyacrylamide gel, transferred to a nitrocellulose membrane, and probed with antibodies against vimentin and GAPDH (Santa Cruz Biotechnology, Dallas, TX, USA). […] The images are representative of three independent experiments.

MCF-7 cells = test: MTT assay, MCF-7; type: cell-based, human; details: MTT, 72 h; mean ± SD; read-out: IC50 MCF-7
Method: as §2, §3

NF-κB in MCF-7 cells = test: NF-κB immunofluorescence, MCF-7; type: cell-based, human; details: IC50 value, 24 h
Method: as §1

[3] = system: NF-κB in MDA-MB-231 cells; test: NF-κB immunofluorescence, MDA-MB-231; type: cell-based, human; details: IC50 value, 24 h
Method: as §1

[4] = system: caspases 3/7, 8, and 9 in MDA-MB-231 cells; test: Caspase-Glo assay, MDA-MB-231; type: cell-based, human; details: IC50 value, 24 h; vs vehicle
Method: The activities of caspases 3/7, 8, and 9 were measured by using the Caspase-Glo Assay according to the manufacturer’s guidelines (Caspase-Glo 3/7, 8, and 9 Assay Systems, Promega Corporation, Madison, WI, USA), as already described. The luminescence was detected in a plate-reading luminometer (Synergy H1 Hybrid Reader, BioTek) for 30 min to 3 h (λex/em = 490/570 nm). Results were reported as signal-to-noise ratio (background was determined from the culture medium without cells). The experiments were performed in triplicate.

SMILES | actin organization in MCF-10A cells (β-actin in MCF-10A cells) | NF-κB localization, MCF-10A (NF-κB in MCF-10A cells) | vimentin expression vs CTRL, MCF-10A [1] | actin organization in MCF-7 cells (β-actin in MCF-7 cells) | effect on actin polymerization (in words) [2] | IC50 (SkBr3 cells) | reduction of vimentin expression with respect to the control, MCF-7 (vimentin in MCF-7 cells) | IC50 (MCF-7 cells) | NF-κB translocation, MCF-7 (NF-κB in MCF-7 cells) | actin organization in MCF-10A cells (β-actin in MCF-10A cells; 24 h, compounds at their IC50 value, LA 0.1 μM) | NF-κB translocation, MDA-MB-231 [3] | actin polymerization curve, final value ([2]; end of 1 h kinetic read, control about 37.000 RFU) | caspase-3 and -7 activity, MDA-MB-231 [4] | caspase-8 activity, MDA-MB-231 [4] | caspase-9 activity, MDA-MB-231 [4]
CC(=O)[O-].Cn1c(Cl)c(Cl)n(CC(O)c2ccccc2)[c]1=[Au+]=[c]1n(C)c(Cl)c(Cl)n1CC(O)c1ccccc1 (centres unmarked) [Compound 6, Bis [4,5-dichloro-(N-methyl, N’(2-hydroxy-2-phenyl-ethyl)imidazole-2-ylidine]gold(I)] acetate] | normal | localized within the cytoplasm and nucleus | not significant | actin bundles appeared thicker and dramatically packed into the cytoplasm | inhibiting activity higher that CB but lesser than LA | 2.3 ± 0.9 µM | two-fold | 1.2 ± 0.3 µM | reduced the translocation of NF-κB from the cytoplasm to the nucleus |  |  |  |  |  | 
Cn1ccn(CC([O-])c2ccccc2)[c]1=[Au+]=[c]1n(C)ccn1CC([O-])c1ccccc1.[Cl-].[Na+].[Na+] (centres unmarked) [Compound 1] |  | localized within the cytoplasm and nucleus | not significant |  | inhibiting activity higher that CB but lesser than LA | 83 ± 1 µM |  | 29.9 ± 1.1 µM |  | normal | reduced the translocation of NF-κB from the cytoplasm to the nucleus | 17000 RFU | clear increase | significant rise | no increase
